“Also recorded” adds a separate entry of the source. Like-named read-outs stand apart in the source and are kept apart here.
Tests used:
γδ T cells = conditions: reported at best (Wilhelm et al., 2003); cited from earlier work
[1] = system: primary polyclonal human Vγ9Vδ2 T cells; experiment: TNFα release (cytokine release) assay; type: cell-based; conditions: for relative potency in words: TNFα release assay, comparison of the tested compounds
Method: Cells (primary polyclonal human Vγ9Vδ2 T cells which have been expanded in vitro and stored frozen at day 12-15 of expansion) are thawed and rinsed twice and centrifuged. Upon elimination of supernatant and resuspension of cells, the cells are incubated for 24 h at 37° C. in the presence of IL2 100 IU/ml (final concentration). The cells are washed and centrifuged, following which the supernatant is eliminated and the cells are resuspended and adjusted to the adequate final concentration. The cells are added to the wells of a 96-well plate.
To one row of wells is added a standard dilution series of (R,S)-3-(bromomethyl)-3-butanol-1-yl-diphosphate (R,S-BrHPP). Compounds to be tested, in this case (E)-4-hydroxy-3-methyl-2-butenyl pyrophosphate ((E)-HDMAPP) and the HAngelylPP and HTiglylPP compounds of the Angelyl/Tiglyl phosphoester series are added to experimental wells, after several dilutions.
Full plates are incubated 24 hours at 37° C. for stimulation of the γδ cells with the test compound and reference compounds, in this case HAngelylPP and HTiglylPP, (R,S)—BrHPP and (E) —HDMAPP, as further described below. After this time, 100 μl of culture supernatant is taken for TNFα dosage. Measurement of the released TNFα dosage is performed as described by the manufacturer's instruction in the TNFα enzyme immunoassay kit (ref. 11121, Immunotech—Beckman Coulter). OD at 405 nm is read, the OD being proportional to the concentration of released TNFα in the culture supernatant. The data are processed with the Excel software to compare concentration of test compound versus concentration of TNFα and for the calculation of the EC50 for each test compound.
The bioactivity of the compound HAngelylPP was assessed using a TNFα release assay as described above. Compounds (R,S)—BrHPP and (E)-HDMAPP were included for purpose of comparison. […] As will be appreciated, any other suitable assays such as cell amplification may be used in assessing compounds.

Molecule: NCCC(O)(P(=O)(O)O)P(=O)(O)O [pamidronate]
- increase in γδ T cell count (γδ T cells): ≤ 2 fold

Molecule: (Z)-4-hydroxy-2-methylbut-2-enyl pyrophosphate [HAngelylPP]
- relative potency in words [1]: highly potent; also recorded: the most potent compound of those tested

Molecule: CC(O)(CBr)CCOP(=O)(O)OP(=O)(O)O (racemic) [(R,S)-BrHPP, (R,S)-3-(bromomethyl)-3-butanol-1-yl-diphosphate, reference compound]
- EC50 ([1]; Homo sapiens, T-cell, TNFα release, 24 hours stimulation at 37° C., relative screening test (FIG. 3), read-out: in vitro EC50): 37.7 nM
- EC50 ([1]; Homo sapiens, T-cell, prior assays with calibrated cells using a (R,S)-BrHPP-standard composition, read-out: EC50): ~15 nM

Molecule: (E)-4-hydroxy-2-methylbut-2-enyl pyrophosphate [HTiglylPP]
- relative potency in words [1]: highly potent
- EC50 ([1]; TNFα release, 24 hours stimulation at 37° C., relative screening test (FIG. 3), read-out: in vitro EC50): 15 nM

Reference: patent publication US7683045B2, “Class of γδ T cells activators and use thereof” (Innate Pharma S.A., priority 2005, dated 2010)
